Counter-ions that a name gives are not always drawn.

We go through 8 compounds from patent US9643974B2, “Amino-substituted imidazopyridazines” (Bayer Intellectual Property GmbH, priority 2011, dated 2017).

The target in one test is T1, human full-lengt MKNK1 (Homo sapiens, UniProt Q9BUB5, T385D).
T1 construct: purchased Carna Biosciences 02-145; host or cells: insect cells (baculovirus expression system)
In words: MKNK1 kinase assay (MKNK1 TR-FRET assay). The test is classed as biochemical. The note with it: ATP final conc. 10 μM, 15 min preincubation, 45 min reaction at 22° C. The source says: MKNK1-inhibitory activity of compounds of the present invention was quantified employing the MKNK1 TR-FRET assay as described in the following paragraphs.
A recombinant fusion protein of Glutathione-S-Transferase (GST, N-terminally) and human full-lengt MKNK1 (amino acids 1-424 and T344D of accession number BAA 19885.1), expressed in insect cells using baculovirus expression system and purified via glutathione sepharose affinity chromatography, was purchased from Carna Biosciences (product no 02-145) and used as enzyme. As substrate for the kinase reaction the biotinylated peptide biotin-Ahx-IKKRKLTRRKSLKG (C-terminus in amide form) was used which can be purchased e.g. form the company Biosyntan (Berlin-Buch, Germany).
(§1) For the assay 50 nL of a 100 fold concentrated solution of the test compound in DMSO was pipetted into a black low volume 384 well microtiter plate (Greiner Bio-One, Frickenhausen, Germany), 2 μL of a solution of MKNK1 in aqueous assay buffer [50 mM HEPES pH 7.5, 5 mM magnesium chloride, 1.0 mM dithiothreitol, 0.005% (v/v) Nonidet-P40 (Sigma)] was added and the mixture was incubated for 15 min at 22° C. to allow pre-binding of the test compounds to the enzyme before the start of the kinase reaction. Then the kinase reaction was started by the addition of 3 μL of a solution of adenosine-tri-phosphate (ATP, 16.7 μM=>final conc. in the 5 μL assay volume is 10 μM) and substrate (0.1 μM=>final conc. in the 5 μL assay volume is 0.06 μM) in assay buffer and the resulting mixture was incubated for a reaction time of 45 min at 22° C. The concentration of MKNK1 was adjusted depending of the activity of the enzyme lot and was chosen appropriate to have the assay in the linear range, typical concentrations were in the range of 0.05 μg/ml. The reaction was stopped by the addition of 5 μL of a solution of TR-FRET detection reagents (5 nM streptavidine-XL665 [Cisbio Bioassays, Codolet, France] and 1 nM anti-ribosomal protein S6 (pSer236)-antibody from Invitrogen [#44921G] and 1 nM LANCE EU-W1024 labeled ProteinG [Perkin-Elmer, product no. AD0071]) in an aqueous EDTA-solution (100 mM EDTA, 0.1% (w/v) bovine serum albumin in 50 mM HEPES pH 7.5).
The resulting mixture was incubated for 1 h at 22° C. to allow the formation of complex between the phosphorylated biotinylated peptide and the detection reagents. Subsequently the amount of phosphorylated substrate was evaluated by measurement of the resonance energy transfer from the Eu-chelate to the streptavidine-XL. Therefore, the fluorescence emissions at 620 nm and 665 nm after excitation at 350 nm were measured in a TR-FRET reader, e.g. a Rubystar (BMG Labtechnologies, Offenburg, Germany) or a Viewlux (Perkin-Elmer). The ratio of the emissions at 665 nm and at […] was taken as the measure for the amount of phosphorylated substrate. The data were normalised (enzyme reaction without inhibitor=0% inhibition, all other assay components but no enzyme=100% inhibition). Usually the test compounds were tested on the same microtiterplate in 11 different concentrations in the range of 20 μM to 0.1 nM (20 μM, 5.9 μM, 1.7 μM, 0.51 μM, 0.15 μM, 44 nM, 13 nM, 3.8 nM, 1.1 nM, 0.33 nM and 0.1 nM, the dilution series prepared separately before the assay on the level of the 100 fold concentrated solutions in DMSO by serial 1:3.4 dilutions) in duplicate values for each concentration and […] were calculated by a 4 parameter fit.

For the next test, the target named is T2, human full-length MKNK1 (Homo sapiens, UniProt Q9BUB5, T385D).
T2 construct: purchased Carna Biosciences 02-145; host or cells: insect cells (baculovirus expression system)
T2 sequence (Q9BUB5 1-424 isoform Q9BUB5-2 T344D): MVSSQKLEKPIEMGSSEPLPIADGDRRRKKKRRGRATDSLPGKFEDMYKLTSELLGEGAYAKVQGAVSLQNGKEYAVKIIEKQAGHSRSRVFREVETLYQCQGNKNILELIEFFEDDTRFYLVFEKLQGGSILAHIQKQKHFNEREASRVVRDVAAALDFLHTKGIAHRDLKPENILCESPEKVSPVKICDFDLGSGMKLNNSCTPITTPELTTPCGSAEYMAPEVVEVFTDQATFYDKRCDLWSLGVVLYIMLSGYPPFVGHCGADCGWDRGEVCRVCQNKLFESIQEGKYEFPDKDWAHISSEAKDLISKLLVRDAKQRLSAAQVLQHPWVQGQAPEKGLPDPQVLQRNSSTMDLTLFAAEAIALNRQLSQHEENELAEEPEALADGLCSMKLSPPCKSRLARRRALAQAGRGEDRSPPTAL
In words: MKNK1 kinase high ATP assay (TR-FRET-based). The test is classed as biochemical. The settings on record: ATP final conc. 2 mM, 15 min preincubation, 30 min reaction at 22° C. The protocol: MKNK1 Kinase High ATP Assay
MKNK1-inhibitory activity at high ATP of compounds of the present invention after their preincubation with MKNK1 was quantified employing the TR-FRET-based MKNK1 high ATP assay as described in the following paragraphs.
A recombinant fusion protein of Glutathione-S-Transferase (GST, N-terminally) and human full-length MKNK1 (amino acids 1-424 and T344D of accession number BAA 19885.1), expressed in insect cells using baculovirus expression system and purified via glutathione sepharose affinity chromatography, was purchased from Carna Biosciences (product no 02-145) and used as enzyme. As substrate for the kinase reaction the biotinylated peptide biotin-Ahx-IKKRKLTRRKSLKG (C-terminus in amide form) was used, which can be purchased e.g. from the company Biosyntan (Berlin-Buch, Germany).
as §1, with “3.3 mM=>final” for “16.7 μM=>final”, “2 mM)” for “10 μM)”, “30” for “45”, “0.003 μg/mL.” for “0.05 μg/ml.”
The resulting mixture was incubated for 1 h at 22° C. to allow the formation of complex between the phosphorylated biotinylated peptide and the detection reagents. Subsequently the amount of phosphorylated substrate was evaluated by measurement of the resonance energy transfer from the Eu-chelate to the streptavidine-XL. Therefore, the fluorescence emissions at 620 nm and 665 nm after excitation at 350 nm were measured in a TR-FRET reader, e.g. a Rubystar (BMG Labtechnologies, Offenburg, Germany) or a Viewlux (Perkin-Elmer). The ratio of the emissions at 665 nm and at […] was taken as the measure for the amount of phosphorylated substrate. The data were normalised (enzyme reaction without inhibitor=0% inhibition, all other assay components but no enzyme=100% inhibition).
On the technique in general: In TR-FRET formats the signal depends on donor and acceptor labels being close together.

T1 sequence (Q9BUB5 1-424 isoform Q9BUB5-2 T344D): as above

As for `N[C@H](COc1ccc2ncc(-c3cc4cnccc4o3)n2n1)c1ccccc1` [Example 1, (1S)-2-{[3-(Furo[3,2-c]pyridin-2-yl)imidazo[1,2-b]pyridazin-6-yl]oxy}-1-phenylethanamine], the IC50 was 17 nM against human full-lengt MKNK1 and 53 nM on human full-length MKNK1.
`CCOc1nccc2oc(-c3cnc4ccc(OC[C@H](C)N)nn34)cc12` [Example 32, (2S)-1-{[3-(4-Ethoxyfuro[3,2-c]pyridin-2-yl)imidazo[1,2-b]pyridazin-6-yl]oxy}-propan-2-amine]: the IC50 at human full-lengt MKNK1 was determined as 14 nM; against human full-length MKNK1, 37 nM.
Taken in the same sequence, the figures for `COc1nccc2oc(-c3cnc4ccc(O[C@H](C)CN)nn34)cc12` [Example 6, (2R)-2-{[3-(4-Methoxyfuro[3,2-c]pyridin-2-yl)imidazo[1,2-b]pyridazin-6-yl]-oxy}propan-1-amine] were 23 nM and 37 nM.
Take `N[C@@H](COc1ccc2ncc(-c3cc4cnccc4o3)n2n1)c1ccccc1` [Example 7, (1R)-2-{[3-(Furo[3,2-c]pyridin-2-yl)imidazo[1,2-b]pyridazin-6-yl]oxy}-1-phenylethanamine]: the IC50 was found to be 25 nM on human full-lengt MKNK1 and 91 nM on human full-length MKNK1.
On to `N[C@H]1C[C@H](Oc2ccc3ncc(-c4cc5cnccc5o4)n3n2)C1` [Example 29, trans-3-{[3-(Furo[3,2-c]pyridin-2-yl)imidazo[1,2-b]pyridazin-6-yl]oxy}cyclobutanamine], for which the IC50 against human full-lengt MKNK1 was 8 nM; against human full-length MKNK1, 16 nM.
In the case of `COc1nccc2oc(-c3cnc4ccc(OC[C@H](N)CO)nn34)cc12` [Example 15, (2R)-2-Amino-3-{[3-(4-methoxyfuro[3,2-c]pyridin-2-yl)imidazo[1,2-b]pyridazin-6-yl]oxy}propan-1-C1], the results for the IC50 on human full-lengt MKNK1 and against human full-length MKNK1 were 12 nM and 31 nM, respectively.
As for `COc1nccc2oc(-c3cnc4ccc(OC(CN)Cc5ccccc5)nn34)cc12` (stereo not shown) [Example 33, 2-{[3-(4-Methoxyfuro[3,2-c]pyridin-2-yl)imidazo[1,2-b]pyridazin-6-yl]oxy}-3-phenylpropan-1-amine], the values for the IC50 against human full-lengt MKNK1 and at human full-length MKNK1 were 99 nM and 117 nM, respectively.
With `N[C@H]1C[C@H](Oc2ccc3ncc(-c4cc5ccncc5o4)n3n2)C1` [Example 13, trans-3-{[3-(Furo[2,3-c]pyridin-2-yl)imidazo[1,2-b]pyridazin-6-yl]oxy}-cyclobutanamine salt with formic acid], the IC50 at human full-lengt MKNK1 is 5 nM; on human full-length MKNK1 it was 16 nM.

As a reminder, the IC50 is the concentration at which inhibition is half-maximal. Lower therefore signals inhibition by little substance.
